Among the test systems are CAKI-1; CCRF-CEM; HOP-62; HOP-92; IGROV-1; K562; MDA-N; MOLT-4; NCI-H522; OVCAR-3; SK-MEL-2; SW-620; U-251; UACC-257; DLD-1; DMS-273; DMS-114; KM-20L2; LXFL 529.
What all share (assay): NCI anticancer screen, dose series, 48 h

Data on 14 compounds can be found in ChEMBL document CHEMBL1201862, “PubChem BioAssay data set” (2004).

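48-hour exposure; five concentrations; linearly interpolated endpoints. GI50 is the concentration that inhibits growth by half.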 Activity calls are given as the source filed them. Cut-off read from the data, not from the text of the source: active = GI50 up to about 1.1 µM and inactive = higher.

As for `CC(C)(C)c1ccc(O)c(CN(Cc2c(O)ccc3ccccc23)C2CCCCC2)c1`, the GI50 in the test with CAKI-1 was 15.2 µM (inactive); in the test with CCRF-CEM it was 13.9 µM (inactive); with HOP-62, 17.6 µM (inactive); in the test on HOP-92, 16.4 µM (inactive); in the test on IGROV-1, 15.7 µM (inactive); with K562, 16.9 µM (inactive). In addition, the GI50 was 15.5 µM (inactive) with MDA-N; 18.6 µM (inactive) with MOLT-4; 14.8 µM (inactive) with NCI-H522; 17.4 µM (inactive) in the test with OVCAR-3; 16.7 µM (inactive) in the test on SK-MEL-2; 24.4 µM (inactive) in the test with SW-620. The GI50 with U-251 is 16 µM (inactive); in the test on UACC-257, 15.7 µM (inactive).

Take `CCN(CC)CC[n+]1ccc2c(C)c3[nH]c4ccccc4c3c(C)c2c1`: the GI50 in the test with CAKI-1 is 1.99 µM (inactive); in the test on CCRF-CEM, 0.204 µM (active); in the test with DLD-1 it was 1.87 µM (inactive); with DMS-273, 0.338 µM (active); in the test with HOP-62, 1.22 µM (inactive); in the test on K562, 0.214 µM (active). Further, the GI50 was 0.675 µM (active) in the test on MDA-N; 0.106 µM (active) in the test with MOLT-4; 0.406 µM (active) in the test with NCI-H522; 0.236 µM (active) in the test on OVCAR-3; 0.428 µM (active) in the test with SK-MEL-2; 0.51 µM (active) in the test with SW-620. For the same compound, the GI50 in the test on U-251 is 0.163 µM (active); with UACC-257, 0.713 µM (active).

On to `CN1Cc2ccccc2S(=O)(=O)n2cccc2C1=O`, for which the GI50 in the test on CAKI-1, in the test with CCRF-CEM, with HOP-62, in the test with HOP-92, with IGROV-1 and with K562 was > 100 µM (inactive) each time. The GI50 with MDA-N, in the test on MOLT-4, in the test on NCI-H522, in the test with OVCAR-3, with SK-MEL-2 and in the test with SW-620 was > 100 µM (inactive) each time. Also, the GI50 with U-251 and in the test with UACC-257 was > 100 µM (inactive) each time.

As to `COC(=O)c1ccccc1C1CN=NC12Cc1ccc(C)cc1C2=O` (stereo not given), the GI50 in the test with CAKI-1 is 84.5 µM (inactive); in the test with CCRF-CEM, > 100 µM (inactive); in the test on HOP-62, > 100 µM (inactive); in the test with HOP-92, 38.9 µM (inactive); in the test with IGROV-1 it was 63.8 µM (inactive); in the test on K562 it was 46.6 µM (inactive). Also, the GI50 in the test on MDA-N is 27.7 µM (inactive); with MOLT-4 it was 47.2 µM (inactive); in the test with NCI-H522, 30.5 µM (inactive); in the test with OVCAR-3, 38.6 µM (inactive); in the test on SK-MEL-2 it was 28.5 µM (inactive); with SW-620, 45.2 µM (inactive). Also, the GI50 with U-251 was 41.6 µM (inactive); in the test with UACC-257, 93.1 µM (inactive).

As to `O=C1CC2(CCNCC2)C(=O)N1N1CCOCC1`, the GI50 in the test on CAKI-1, with CCRF-CEM, in the test on HOP-62, with HOP-92, in the test on IGROV-1 and with K562 was > 100 µM (inactive) throughout. Further, the GI50 with MDA-N, with MOLT-4, in the test with NCI-H522, with OVCAR-3, in the test with SK-MEL-2 and with SW-620 was > 100 µM (inactive) throughout. The GI50 with U-251 and in the test with UACC-257 was > 100 µM (inactive) throughout.

Turning to `COC1OC(CO)C(O)C1N` (stereo not given), the GI50 in the test with CAKI-1, in the test on CCRF-CEM, with DLD-1, in the test on DMS-114, in the test on HOP-62 and with HOP-92 was > 100 µM (inactive) each time. The GI50 with IGROV-1, with K562, in the test with KM-20L2, with LXFL 529, in the test with MOLT-4 and in the test on NCI-H522 was > 100 µM (inactive) in each case. Also, the GI50 in the test on OVCAR-3, with SW-620, with U-251 and in the test on UACC-257 was > 100 µM (inactive) in each case.

For `COc1ccc(C#CCC(OC2OC(CO)C(O)C(O)C2O)C(O)c2ccc(OC)c(OC)c2)cc1OC` (stereo not given), the GI50 is > 100 µM (inactive) in the test with CAKI-1; 36.6 µM (inactive) in the test with CCRF-CEM; > 100 µM (inactive) in the test on DLD-1; > 100 µM (inactive) with DMS-273; > 100 µM (inactive) in the test with HOP-62; > 100 µM (inactive) in the test on IGROV-1. For the same compound, the GI50 with K562 is 57.4 µM (inactive); in the test with KM-20L2, > 100 µM (inactive); in the test on LXFL 529, > 100 µM (inactive); in the test with MOLT-4, > 100 µM (inactive); with NCI-H522 it was > 100 µM (inactive); in the test on OVCAR-3, > 100 µM (inactive). Besides, the GI50 in the test with SK-MEL-2, in the test on SW-620, with U-251 and in the test on UACC-257 was > 100 µM (inactive) throughout.

Take `C=CCn1c(=O)ccn(/C(=C/C(=O)OCC)C(=O)OCC)c1=O`: the GI50 was 1.91 µM (inactive) in the test with CAKI-1; 2.08 µM (inactive) in the test on CCRF-CEM; 20.9 µM (inactive) in the test on HOP-62; 2.36 µM (inactive) in the test on HOP-92; 15.3 µM (inactive) in the test with IGROV-1; 3.08 µM (inactive) with K562. Further, the GI50 with MDA-N is 15.5 µM (inactive); in the test on MOLT-4, 2.99 µM (inactive); in the test on NCI-H522 it was 2.44 µM (inactive); in the test on OVCAR-3 it was 5.66 µM (inactive); with SK-MEL-2 it was 15.7 µM (inactive); in the test with SW-620, 2.18 µM (inactive). Moreover, the GI50 in the test with U-251 is 14.4 µM (inactive); in the test on UACC-257, 15.2 µM (inactive).

For `CC(Oc1ccccc1Cl)C(=O)NN1C(=O)CSC1c1ccccc1` (stereo not given), the GI50 in the test on CAKI-1 was > 100 µM (inactive); in the test on CCRF-CEM, > 100 µM (inactive); in the test with HOP-62, > 100 µM (inactive); in the test on HOP-92, 57.3 µM (inactive); with IGROV-1, > 100 µM (inactive); in the test with K562, 32.7 µM (inactive). Moreover, the GI50 with MDA-N is 57.8 µM (inactive); with MOLT-4, 29.8 µM (inactive); in the test on NCI-H522, 64.6 µM (inactive); with OVCAR-3, > 100 µM (inactive); in the test on SK-MEL-2, > 100 µM (inactive); with SW-620, > 100 µM (inactive). In addition, the GI50 in the test on U-251 and in the test with UACC-257 was > 100 µM (inactive) throughout.

Take `C=C(CBr)CCCOCc1ccccc1`: the GI50 was 5.6 µM (inactive) in the test with CAKI-1; 26.1 µM (inactive) with CCRF-CEM; 22.2 µM (inactive) with HOP-62; 21.6 µM (inactive) in the test on HOP-92; 21.4 µM (inactive) with IGROV-1; 40.3 µM (inactive) with K562. Further, the GI50 in the test with MDA-N is > 10 µM (inactive); with MOLT-4 it was 30.8 µM (inactive); in the test with NCI-H522, 22.3 µM (inactive); in the test on OVCAR-3, 19.1 µM (inactive); in the test on SK-MEL-2, 18.6 µM (inactive); with SW-620, 32.7 µM (inactive). In addition, the GI50 is 34.7 µM (inactive) with U-251 and 33.9 µM (inactive) with UACC-257.

On to `N#CC1CCCC2SC(F)(F)C(F)(F)C12` (stereo not given), for which the GI50 was > 100 µM (inactive) in the test with CAKI-1; 26.4 µM (inactive) in the test on CCRF-CEM; > 100 µM (inactive) with HOP-62; > 100 µM (inactive) in the test with HOP-92; > 100 µM (inactive) in the test with IGROV-1; 30.5 µM (inactive) in the test on K562. For the same compound, the GI50 was > 100 µM (inactive) with MDA-N; 26.6 µM (inactive) in the test on MOLT-4; > 87.5 µM (inactive) in the test on NCI-H522; > 100 µM (inactive) with OVCAR-3; > 100 µM (inactive) in the test with SK-MEL-2; > 100 µM (inactive) in the test with SW-620. In addition, the GI50 with U-251 and in the test on UACC-257 was > 100 µM (inactive) each time.

As for `O=S(=O)(c1ccccc1)n1c2ccc(Br)cc2c2nc3ccccc3nc21`, the GI50 in the test on CAKI-1, in the test with CCRF-CEM, in the test with HOP-62, in the test on HOP-92, with IGROV-1 and in the test with K562 was > 100 µM (inactive) in each case. Further, the GI50 with MDA-N, with MOLT-4, in the test on NCI-H522, in the test on OVCAR-3, in the test on SK-MEL-2 and in the test with SW-620 was > 100 µM (inactive) throughout. The GI50 in the test on U-251 and in the test on UACC-257 was > 100 µM (inactive) throughout.

For the compound `O=C(/C=C/c1ccc(O)c(O)c1)OCCOC(=O)/C=C/c1ccc(O)c(O)c1`, the GI50 with CAKI-1 was 39.4 µM (inactive); with CCRF-CEM, 33.1 µM (inactive); with HOP-62, 21.5 µM (inactive); in the test on HOP-92, 42.2 µM (inactive); in the test on IGROV-1, 35 µM (inactive); in the test on K562 it was 24.8 µM (inactive). Besides, the GI50 with MDA-N was 19.8 µM (inactive); in the test on MOLT-4, 20.9 µM (inactive); in the test with NCI-H522 it was 20 µM (inactive); with OVCAR-3, 19.3 µM (inactive); with SK-MEL-2 it was 22.1 µM (inactive); in the test on SW-620, 38.1 µM (inactive). Also, the GI50 in the test with U-251 was 25.3 µM (inactive); with UACC-257, 17.9 µM (inactive).

With `Cc1cc(Cl)ccc1Nc1sc(C(=O)c2cc3cc(Cl)ccc3o2)c(N)c1C#N`, the GI50 in the test with CAKI-1 is 25.1 µM (inactive); in the test with CCRF-CEM, > 27.1 µM (inactive); in the test on HOP-62, 4.86 µM (inactive); in the test with HOP-92 it was 47 µM (inactive); with IGROV-1, 16.3 µM (inactive); in the test on K562, 18.7 µM (inactive). The GI50 with MDA-N is 79.3 µM (inactive); in the test on MOLT-4 it was > 53.3 µM (inactive); with NCI-H522, 3.42 µM (inactive); in the test with OVCAR-3, 12.5 µM (inactive); with SK-MEL-2, > 44.9 µM (inactive); in the test on SW-620 it was 15.2 µM (inactive). Also, the values for the GI50 in the test with U-251 and in the test with UACC-257 were 4.14 µM (inactive) and > 61.7 µM (inactive), respectively.
